Source: patent publication US20110165267A1, “AGENTS FOR TREATING AND/OR AVOIDING FIRE BLIGHT” (LANXESS DISTRIBUTION GMBH, priority 2008, published 2011)
“And” between values parts separate entries of the source, which are not always exact repeats. Identical values can stand only once.

Test system: Erwinia amylovora 385
Assay: Reduction of the Erwinia amylovora population on apple blossom
Type: in vivo
Conditions: 0.06% streptomycin; apple blossom cv. Gala; 10^6 bacteria/ml; sprayed one hour after inoculation; 6 days at 20 to 23° C.; tests 4 to 6
Experimental: 2. Testing the Reduction of the Erwinia amylovora Population on Apple Blossom
Test plants: Apple blossom cv. Gala
Apple blossom cv. Gala were used in the following tests. The trees had not been treated with plant protection compositions. The flowers were placed by the petiole into a 10% strength sucrose solution and incubated in a humid chamber. 24 flowers were employed per treatment and repletition, and the test was repeated in each case three times.
Pathogen: Erwinia amylovora 385 was grown on agar plates. The apple blossom was inoculated with a suspension of 10^6 bacteria/ml.
Plant Treatment Composition:
1 part by weight of a solid formulation comprising
63.75% by weight of calcium formate
18.75% by weight of citric acid
16.73% by weight of calcium chloride
0.77% by weight of wetting agent and anti-dust agent were dissolved in 50 parts by weight (P 2%) of tap water and the solution was used for the following treatment. The pH was 4.1.
To carry out the treatments, the blossom was sprayed with the respective solution one hour after the inoculation, the chamber was sealed, and the contents were incubated for 6 days at 20 to 23° C.
(1-3) Water as the control
(4-6) 0.06% streptomycin (for comparison)

## [H]/N=C(/N)N[C@H]1[C@H](O)[C@@H](O)[C@H](O[C@@H]2O[C@@H](C)[C@](O)(C=O)[C@H]2O[C@@H]2O[C@@H](CO)[C@H](O)[C@@H](O)[C@@H]2NC)[C@@H](N/C(N)=N\[H])[C@@H]1O [streptomycin]
  Efficacy: 84.6% and 89.5% and 95.5%
